Legend:
GPR17 [1] = target: T1, GPR17 (Homo sapiens, UniProt Q13304); test: cAMP accumulation functional assay (HTRF, Schild analysis); format: cell-based; set-up: host or cells: Flp-In T-REx CHO; details: CHO hGPR17 cells, Schild analysis vs MDL29,951, 5 μM forskolin, read-out: cAMP assay pA2 (converted)
Summary of the method: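 Antagonist affinity (pA2) came from Schild plots of dose ratios, based on MDL29,951 concentration-response curves fitted by 4-parameter logistic. The read-out was HTRF cAMP in 5,000 doxycycline-induced CHO hGPR17 cells per well, with 30 min compound preincubation and 60 min stimulation, at room temperature in pH 7.4 buffer.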

GPR17 [2] = target: T1, GPR17; test: Calcium mobilization functional assay (GPR17 Ca2+ assay); format: cell-based; set-up: host or cells: Flp-In T-REx CHO; details: CHO hGPR17 cells, inhibition of 50 nM MDL29,951, Calcium 5 dye, FLIPR; read-out: Ca2+ assay pIC50 (converted)
Summary of the method: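 pIC50 values were fitted with a 4-parameter logistic curve. They reflect test-compound inhibition of cytosolic Ca2+ release evoked by 50 nM MDL29,951, tracked as Calcium 5 fluorescence at room temperature. Cells were CHO Flp-In T-REx stably carrying human GPR17, induced with doxycycline 1 μg/mL for 16-20 h.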

T1 sequence (Q13304 whole entry): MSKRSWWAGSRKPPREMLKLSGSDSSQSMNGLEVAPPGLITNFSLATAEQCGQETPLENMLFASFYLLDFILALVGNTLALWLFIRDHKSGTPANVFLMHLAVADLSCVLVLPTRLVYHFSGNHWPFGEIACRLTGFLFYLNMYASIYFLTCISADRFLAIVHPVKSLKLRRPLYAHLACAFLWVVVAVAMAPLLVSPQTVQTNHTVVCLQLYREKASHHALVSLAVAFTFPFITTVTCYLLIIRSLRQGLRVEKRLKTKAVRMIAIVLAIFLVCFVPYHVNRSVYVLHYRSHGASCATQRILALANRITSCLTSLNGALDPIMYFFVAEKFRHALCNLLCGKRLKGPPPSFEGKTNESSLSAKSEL

Compound	Kb (GPR17 [1]) [nM]	IC50 (GPR17 [2]) [nM]
N#Cc1ccc(NS(=O)(=O)c2c[nH]c3cc(OCc4ccccc4)ccc23)c(F)c1 [Compound I-154, 6-(benzyloxy)-N-(4-cyano-2-fluorophenyl)-1H-indole-3-sulfonamide]	3.16 to 31.6	< 3.16
O=S(=O)(Nc1ccc2nonc2c1)c1c[nH]c2cc(Cl)ccc12 [Compound I-201, N-(2,1,3-benzoxadiazol-5-yl)-6-chloro-1H-indole-3-sulfonamide]	< 3.16	> 31.6
O=c1[nH]c2cccc(NS(=O)(=O)c3c[nH]c4cc(Cl)ccc34)c2o1 [Compound I-301, 6-chloro-N-(2-oxo-2,3-dihydro-1,3-benzoxazol-7-yl)-1H-indole-3-sulfonamide]	3.16 to 31.6	3.16 to 31.6
O=C1NCc2cc(F)c(NS(=O)(=O)c3c[nH]c4cc(Cl)ccc34)cc21 [Compound I-265, 6-chloro-N-(6-fluoro-3-oxo-2,3-dihydro-1H-isoindol-5-yl)-1H-indole-3-sulfonamide]	> 31.6	3.16 to 31.6
O=S(=O)(Nc1cc(Cl)ccc1F)c1c[nH]c2cc(Cl)ccc12 [Compound I-4, 6-chloro-N-(5-chloro-2-fluorophenyl)-1H-indole-3-sulfonamide]	3.16 to 31.6	> 31.6
O=S(=O)(Nc1nc(F)c(Cl)cc1F)c1c[nH]c2c3c(ccc12)CCC3 [Compound I-317, N-(5-chloro-3,6-difluoropyridin-2-yl)-1,6,7,8-tetrahydrocyclopenta[g]indole-3-sulfonamide]	3.16 to 31.6	3.16 to 31.6
COc1cc(C#N)c(F)cc1NS(=O)(=O)c1c[nH]c2nc(Cl)ccc12 [Compound I-292, 6-chloro-N-(4-cyano-5-fluoro-2-methoxyphenyl)-1H-pyrrolo[2,3-b]pyridine-3-sulfonamide]	3.16 to 31.6	3.16 to 31.6
O=S(=O)(Nc1cccc2nsnc12)c1c[nH]c2c1ccc1ccccc12 [Compound I-155, N-(2,1,3-benzothiadiazol-4-yl)-1H-benzo[g]indole-3-sulfonamide]	< 3.16	3.16 to 31.6
O=S(=O)(Nc1cccc2c1OC(F)(F)O2)c1c[nH]c2cc(Cl)ccc12 [Compound I-123, 6-chloro-N-(2,2-difluoro-1,3-benzodioxol-4-yl)-1H-indole-3-sulfonamide]	3.16 to 31.6	3.16 to 31.6
O=S(=O)(Nc1cc(F)ccc1F)c1c[nH]c2cc(Cl)ccc12 [Compound I-9, 6-chloro-N-(2,5-difluorophenyl)-1H-indole-3-sulfonamide]	3.16 to 31.6	3.16 to 31.6
N#Cc1cc(F)c(NS(=O)(=O)c2c[nH]c3c2ccc2ccccc23)cc1F [Compound I-151, N-(4-cyano-2,5-difluorophenyl)-1H-benzo[g]indole-3-sulfonamide]	< 3.16	< 3.16
N#Cc1ccc(NS(=O)(=O)c2c[nH]c3cc(-c4ccsc4)ccc23)c(F)c1 [Compound I-230, N-(4-cyano-2-fluorophenyl)-6-(thiophen-3-yl)-1H-indole-3-sulfonamide]	3.16 to 31.6	3.16 to 31.6
N#Cc1cc(F)c(NS(=O)(=O)c2c[nH]c3cc(Cl)ccc23)cc1F [Compound I-185, 6-chloro-N-(4-cyano-2,5-difluorophenyl)-1H-indole-3-sulfonamide]	< 3.16	< 3.16
O=S(=O)(Nc1ccc(Cl)cc1F)c1c[nH]c2nc(Cl)ccc12 [Compound I-224, 6-chloro-N-(4-chloro-2-fluorophenyl)-1H-pyrrolo[2,3-b]pyridine-3-sulfonamide]	3.16 to 31.6	3.16 to 31.6
COc1nc(NS(=O)(=O)c2c[nH]c3cc([N+](=O)[O-])ccc23)c(F)cc1CC#N [Compound I-351, N-[5-(cyanomethyl)-3-fluoro-6-methoxypyridin-2-yl]-6-nitro-1H-indole-3-sulfonamide]	3.16 to 31.6	3.16 to 31.6
O=S(=O)(Nc1cc(F)c(Cl)cc1F)c1c[nH]c2nc(C(F)(F)F)ccc12 [Compound I-247, N-(4-chloro-2,5-difluorophenyl)-6-(trifluoromethyl)-1H-pyrrolo[2,3-b]pyridine-3-sulfonamide]	< 3.16	3.16 to 31.6
COc1ccc2c(S(=O)(=O)Nc3ccc(C#N)cc3F)c[nH]c2c1 [Compound I-112, N-(4-cyano-2-fluorophenyl)-6-methoxy-1H-indole-3-sulfonamide]	3.16 to 31.6	3.16 to 31.6
O=S(=O)(Nc1nc(F)c(Cl)cc1F)c1c[nH]c2c1ccc1cccnc12 [Compound I-316, N-(5-chloro-3,6-difluoropyridin-2-yl)-1H-pyrrolo[3,2-h]quinoline-3-sulfonamide]	3.16 to 31.6	3.16 to 31.6
COc1nc(NS(=O)(=O)c2c[nH]c3c(OC(F)F)c(Cl)ccc23)c(F)cc1F [Compound I-366, 6-chloro-7-(difluoromethoxy)-N-(3,5-difluoro-6-methoxypyridin-2-yl)-1H-indole-3-sulfonamide]	3.16 to 31.6	3.16 to 31.6

Compound	Kb (GPR17 [1]) [nM]	IC50 (GPR17 [2]) [nM]
O=S(=O)(Nc1cc(F)c(OCC(F)F)cc1F)c1c[nH]c2cc(Cl)ccc12 [Compound I-246, 6-chloro-N-[4-(2,2-difluoroethoxy)-2,5-difluorophenyl]-1H-indole-3-sulfonamide]	< 3.16	< 3.16
COc1ccc2c(S(=O)(=O)Nc3cc(F)c(Cl)cc3F)c[nH]c2c1 [Compound I-221, N-(4-chloro-2,5-difluorophenyl)-6-methoxy-1H-indole-3-sulfonamide]	3.16 to 31.6	3.16 to 31.6
COc1ccc2c(S(=O)(=O)Nc3cc(F)c(Cl)cc3F)c[nH]c2n1 [Compound I-281, N-(4-chloro-2,5-difluorophenyl)-6-methoxy-1H-pyrrolo[2,3-b]pyridine-3-sulfonamide]	3.16 to 31.6	3.16 to 31.6
O=S(=O)(Nc1cc(F)c(OC(F)F)cc1F)c1c[nH]c2cc(Cl)ccc12 [Compound I-267, 6-chloro-N-[4-(difluoromethoxy)-2,5-difluorophenyl]-1H-indole-3-sulfonamide]	< 3.16	< 3.16
COc1cc(C#N)c(F)cc1NS(=O)(=O)c1c[nH]c2cc(Cl)ccc12 [Compound I-286, 6-chloro-N-(4-cyano-5-fluoro-2-methoxyphenyl)-1H-indole-3-sulfonamide]	< 3.16	< 3.16
O=S(=O)(Nc1ncc(Cl)cc1F)c1c[nH]c2c1ccc1ccccc12 [Compound I-191, N-(5-chloro-3-fluoropyridin-2-yl)-1H-benzo[g]indole-3-sulfonamide]	< 3.16	3.16 to 31.6
N#Cc1ccc(NS(=O)(=O)c2c[nH]c3nc(Cl)ccc23)c(F)c1 [Compound I-108, 6-chloro-N-(4-cyano-2-fluorophenyl)-1H-pyrrolo[2,3-b]pyridine-3-sulfonamide]	3.16 to 31.6	3.16 to 31.6
O=C1OCc2ccc(NS(=O)(=O)c3c[nH]c4cc(Cl)ccc34)cc21 [Compound I-8, 6-chloro-N-(3-oxo-1,3-dihydro-2-benzofuran-5-yl)-1H-indole-3-sulfonamide]	> 31.6	> 31.6
Cc1ccnc(NS(=O)(=O)c2c[nH]c3cc(Cl)ccc23)c1 [Compound I-59]	> 31.6	> 31.6
O=S(=O)(Nc1cc(F)c(Cl)cc1F)c1c[nH]c2c(F)c(Cl)ccc12 [Compound I-242, 6-chloro-N-(4-chloro-2,5-difluorophenyl)-7-fluoro-1H-indole-3-sulfonamide]	< 3.16	3.16 to 31.6
O=S(=O)(Nc1ccc(Cl)cn1)c1c[nH]c2cc(Cl)ccc12 [Compound I-63, 6-chloro-N-(5-chloropyridin-2-yl)-1H-indole-3-sulfonamide]	3.16 to 31.6	> 31.6
COc1cc(C#N)c(F)cc1NS(=O)(=O)c1c[nH]c2c1ccc1ccccc12 [Compound I-289, N-(4-cyano-5-fluoro-2-methoxyphenyl)-1H-benzo[g]indole-3-sulfonamide]	< 3.16	< 3.16
O=S(=O)(Nc1cc(F)c(Cl)cc1F)c1csc2cc(Cl)ccc12 [Compound I-312, 6-chloro-N-(4-chloro-2,5-difluorophenyl)-1-benzothiophene-3-sulfonamide]	3.16 to 31.6	3.16 to 31.6
COc1nc(NS(=O)(=O)c2c[nH]c3c(Cl)c(F)ccc23)c(F)cc1Cl [Compound I-357, 7-chloro-N-(5-chloro-3-fluoro-6-methoxypyridin-2-yl)-6-fluoro-1H-indole-3-sulfonamide]	3.16 to 31.6	3.16 to 31.6
O=S(=O)(Nc1cc(F)c(Cl)cc1F)c1c[nH]c2cc(OCC(F)(F)F)ccc12 [Compound I-300, N-(4-chloro-2,5-difluorophenyl)-6-(2,2,2-trifluoroethoxy)-1H-indole-3-sulfonamide]	3.16 to 31.6	3.16 to 31.6
Cc1ccc2c(S(=O)(=O)Nc3ccc(Cl)cc3F)c[nH]c2c1 [Compound I-174, N-(4-chloro-2-fluorophenyl)-6-methyl-1H-indole-3-sulfonamide]	3.16 to 31.6	3.16 to 31.6
N#Cc1ccc(NS(=O)(=O)c2csc3cc(Cl)ccc23)cc1 [Compound I-311, 6-chloro-N-(4-cyanophenyl)-1-benzothiophene-3-sulfonamide]	3.16 to 31.6	3.16 to 31.6
N#Cc1cc(F)c(NS(=O)(=O)c2c[nH]c3cc(OCc4ccccc4)ccc23)cc1F [Compound I-153, 6-(benzyloxy)-N-(4-cyano-2,5-difluorophenyl)-1H-indole-3-sulfonamide]	3.16 to 31.6	< 3.16
